# Source: article PMC6176987, “Correction of cognitive deficits in mouse models of Down syndrome by a pharmacological inhibitor of DYRK1A” (Disease Models & Mechanisms, 2018)
# Tests used:
# CLK2 = CLK2 (Mus musculus, UniProt O35491); test: Recombinant protein kinase assay, CLK2; assay type: biochemical
# CK2 = target: T1, CK2 (Homo sapiens, UniProt P68400); test: Recombinant protein kinase assay, CK2; assay type: biochemical; conditions: 15 µM ATP
# T1 construct: Cochet
# Dp1Yey mice = test: Novel object recognition (NOR) test in Dp1Yey mice; assay type: in vivo, mouse; conditions: daily i.p. treatment for 19 days
# Method: Behavioural studies were conducted in 12- to 20-week-old male animals. All assessments were scored blind to genotype and treatment, as recommended by the ARRIVE guidelines ([Karp et al., 2015]; [Kilkenny et al., 2010]). […] The final formulation was prepared just prior to use as a 2 mg/ml solution diluted in PEG300/water (50/45), to reach a final DMSO/PEG300/water 5/50/45 (v/v/v) mix. Treated animals received a daily dose (5, 12 or 19 days) of this formulation by i.p. injection of 20 mg/kg/day. Nontreated animals received the same formulation without L41.
# The NOR task is based on the innate tendency of rodents to differentially explore a novel object over a familiar one ([Ennaceur and Delacour, 1988]). Day 1 was a habituation session. Mice freely explored the apparatus, a white circular arena (53 cm diameter) placed in a dimly lit testing room (40 lux). On day 2, the acquisition phase, mice were free to explore two identical objects for 10 min. Mice were then returned to their home cage for a 24 h retention interval. […] Object exploration was manually scored and defined as the orientation of the nose to the object at a distance <1 cm. For the retention phase, the percent of time spent exploring familiar versus novel objects was calculated to assess memory performance.
# [1] = L41 levels in brain nuclear and cytoplasmic fractions; conditions: mouse, in vivo
# Method: Thus, DYRK1A overexpression in the transgenic animals' brains appears to be limited to the cytoplasmic fraction, corresponding to the subcellular distribution of overexpressed DYRK1A (Fig. 7A,B). Accordingly, more L41 is detected in the cytoplasmic fraction from transgenic animals compared with their control littermates.
# Nuclear, cytosolic and synaptosomal subcellular fractionation of brain tissue was performed with the Syn-PER™ and ProteoExtract® Tissue Dissociation Buffer Kit and Subcellular Proteome Extraction Kit following the instructions of the manufacturer. Fractions were analysed by SDS-PAGE and WB with specific antibodies.
# [2] = system: Tg(Dyrk1a) mice brain phosphoproteins; test: Brain phosphoproteomic analysis, Tg(Dyrk1a) mice; assay type: in vivo, mouse; conditions: 20 mg/kg daily i.p. 19 days
# Description: All tissue samples were processed for phosphoproteomics analysis based on the enrichment and separation of proteotypic phosphopeptides with HILIC (see Materials and Methods). In Tg(Dyrk1a) and Ts65Dn mice, the hippocampus, cortex and cerebellum yielded 1384, 1523 and 2004 peptides, respectively, corresponding to 886, 948 and 1229 proteins (Table 1; Tables S1-S13).
# Only biological processes common to the three brain regions and both models are presented (complete biological processes are listed in Tables S11-S13).
# DYRK1A substrates and their respective phosphorylation sites were identified in the phosphoproteome based on the DYRK1A phosphorylation consensus sequence R-P-x(1,3)-S/T-P ([Himpel et al., 2000]). […] Biological process enrichments of each cluster were assessed by using ToppCluster web server application. […]
# Protein Identification and Quantification. […]
# Precursor Mass Tolerance 10 ppm, Fragment Mass Tolerance 20 mmu, Dynamic Modifications were Oxidation of M (+15.995 Da), Deamidation of N, Q (+0.984 Da), Phosphorylation of S (+79.966 Da) and Static Modifications were iTRAQ8plex at any N-Terminus, K, Y (+304.205 Da) and Methylthio at C (+45.988 Da). […] The Reporter Ion Quantifier node included a custom iTRAQ 8plex (Thermo Scientific Instruments) Quantification Method, integration window tolerance of 10 ppm with Most Confident Centroid. […]
# Chain of CLK2 (O35491 whole entry): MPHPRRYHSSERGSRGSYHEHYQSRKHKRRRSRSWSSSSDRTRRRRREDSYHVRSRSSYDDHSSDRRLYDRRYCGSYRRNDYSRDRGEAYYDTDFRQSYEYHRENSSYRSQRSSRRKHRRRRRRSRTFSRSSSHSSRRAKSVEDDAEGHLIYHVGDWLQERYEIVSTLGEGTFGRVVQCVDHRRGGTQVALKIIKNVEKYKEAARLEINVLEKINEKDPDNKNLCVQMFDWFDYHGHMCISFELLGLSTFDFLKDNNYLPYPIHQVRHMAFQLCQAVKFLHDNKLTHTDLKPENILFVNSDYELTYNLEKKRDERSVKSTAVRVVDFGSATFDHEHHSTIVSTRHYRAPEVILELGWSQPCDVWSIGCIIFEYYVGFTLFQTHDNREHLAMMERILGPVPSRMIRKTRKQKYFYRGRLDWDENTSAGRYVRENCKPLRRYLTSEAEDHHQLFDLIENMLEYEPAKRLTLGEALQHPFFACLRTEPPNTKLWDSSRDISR
# T1 sequence (P68400 whole entry): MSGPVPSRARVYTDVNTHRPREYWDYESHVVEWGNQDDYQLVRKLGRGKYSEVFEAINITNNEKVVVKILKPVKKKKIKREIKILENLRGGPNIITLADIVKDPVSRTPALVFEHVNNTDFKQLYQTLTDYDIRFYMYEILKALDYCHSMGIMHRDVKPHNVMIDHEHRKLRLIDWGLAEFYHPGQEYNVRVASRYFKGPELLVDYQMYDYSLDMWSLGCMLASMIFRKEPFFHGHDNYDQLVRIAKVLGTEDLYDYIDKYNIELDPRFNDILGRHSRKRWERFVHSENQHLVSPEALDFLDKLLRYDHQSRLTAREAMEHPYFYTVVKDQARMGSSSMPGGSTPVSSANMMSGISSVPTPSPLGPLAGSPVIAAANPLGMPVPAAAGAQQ
structure (smiles),measurement,setting,value
O=C1NC(Nc2ccccc2)=N/C1=C\c1ccc2c(c1)OCO2 [L41],IC50,CLK2,130 nM
same,IC50,CK2,510 nM
same,NOR test outcome,Dp1Yey mice,rescue
same,"L41 level in brain cytoplasmic fraction, Tg(Dyrk1a) vs wt",[1],significantly increased
same,"L41 levels in brain nuclear fractions, Tg(Dyrk1a) vs wt",[1],identical L41 levels
same,SYN1 Ser551 phosphorylation following treatment,[2],dephosphorylated
